Broadly, the GI50 is the concentration giving 50% growth inhibition. By melting point is commonly meant the temperature, or range, at which the solid turns liquid.

SMILES strings stand for the structures. Entries after “also recorded” stand apart in the source; their conditions may differ. Read-outs that look alike come from different tables or passages of the source.

Consider 27 molecules from publication PMC10343686, “Integration of Hybridization Strategies in Pyridine–Urea Scaffolds for Novel Anticancer Agents: Design, Synthesis, and Mechanistic Insights” (Molecules, 2023).

One data set relates to HCT116 cancer cell line. Description: SRB assay of antiproliferative activity, HCT116. It counts as cell-based. To be noted: Homo sapiens, HCT-116, 48 h, mean ± standard error (n = 3). The method, then: (§1) Breast cancer cell line MCF7 and colorectal carcinoma cell line HCT116 were obtained from the National Cancer Institute (MTA Number: 2702-09). Cells were cultured in complete RPMI 1640 medium (Hyclone, Logan, UT, USA) containing 10% FBS (Hyclone, Logan, UT, USA) in an atmosphere of 5% CO 2/100% humidity at 37 °C. Each investigated compound was diluted using DMSO to make a stock solution. It was treated by mixing with cell culture medium (RPMI1640 containing 10% FBS (Hyclone, Logan, UT, USA)) so that the final concentration of the drug was 0.001, 0.01, 0.1, 1, or 10 uM. There was no compound precipitated upon treatment in the culture medium.
(§2) The SRB assay was performed following the methodology of previously published studies. In brief, the cells (100 μL medium containing 5000 HCT116 or 10,000 MCF7 cells/well) were incubated in 96-well microtiter plates. After 24 h, the drug was added (100 μL) to each well and the cultures were incubated for 48 h at 37 °C. The cells were fixed in 50% TCA (50 μL per well) for 1 h at 4 °C. The liquid was removed from the plate, which was then rinsed five times with water and allowed to dry at room temperature (RT). Washed cells were stained for 10 min at RT with 0.4% SRB (100 μL per well). After staining, the plate was washed 3 times with 1% glacial acetic acid and dried at RT. The SRB stain was then solubilized in 10 mM Tris and absorbances were read at 515 nm. The effect of the drugs was expressed in terms of the GI50 (the concentration resulting in 50% maximal inhibition of cell proliferation). […]

Another data set relates to normal cell line HEK293. Description: SRB assay of antiproliferative activity on normal cells. It counts as cell-based. To be noted: HEK293, 48 h, Figure 3. The method, then: The antiproliferative activity of compounds 8a, 8h, and 8i was evaluated in a sulforhodamine B (SRB) assay using normal cell line HEK293 cells. Cells were treated for 48 h under the same conditions used for the assessment of the antiproliferative activity on the cancer cells.

Data set [1] deals with MCF7 cancer cell line. Description: SRB assay of antiproliferative activity, MCF7. It counts as cell-based. The following applies: for GI50: Homo sapiens, MCF7, SRB assay, 48 h, mean ± standard error (n = 3). The method, then:
as §1, §2

Data set [2] concerns MCF7 cancer cell line. More on the design: method as in PMID 35217379. To be noted: cited from earlier work.

Take `COc1n[nH]c2ccc(-c3ccnc(NC(=O)Nc4ccccc4)c3)cc12` [Compound 8a, 1-(4-(3-Methoxy-1H-indazol-5-yl)pyridin-2-yl)-3-phenylurea]: the melting point is 218 to 221 °C. Besides, in the data set with HCT116 cancer cell line, growth was halved (GI50) at 1.19 ± 0.035 µM. In the data set on normal cell line HEK293, the “cell growth inhibitory effect on normal cells” value (“cell growth inhibitory effect” below) is given as “excellent safety profiles; also recorded: low cytotoxicity”. Besides, in the data set on MCF7 cancer cell line [1], the GI50 turned out to be 0.06 ± 0.014 µM. Also, the “potency compared to the positive control drug Irinotecan” value with MCF7 cancer cell line [1] (MCF7 cancer cell line, ratio of GI50 values) came out at 6 fold.

In the case of `O=C(Nc1cc(-c2ccc3cncnc3c2)ccn1)NC1CCCC1` [Compound 4j, 1-Cyclopentyl-3-(4-(quinazolin-7-yl)pyridin-2-yl)urea], the melting point lay within 223 to 226 °C. The molecule also displayed a GI50 in the data set on HCT116 cancer cell line of more than 10 µM. In addition, in the data set on MCF7 cancer cell line [1], the GI50 was more than 10 µM.

For the molecule `COc1n[nH]c2ccc(-c3ccnc(NC(=O)Nc4ccc(F)cc4)c3)cc12` [Compound 8c, 1-(4-Fluorophenyl)-3-(4-(3-methoxy-1H-indazol-5-yl)pyridin-2-yl)urea], the melting point fell in the range of 229 to 232 °C. Besides, it took 1.22 ± 0.141 µM to inhibit growth in the data set with HCT116 cancer cell line by half (GI50). Also, in the data set on MCF7 cancer cell line [1], halving of growth (GI50) required 3.73 ± 0.075 µM.

The molecule `COc1n[nH]c2ccc(-c3ccnc(NC(=O)NCc4ccccc4)c3)cc12` [Compound 8h, 1-Benzyl-3-(4-(3-methoxy-1H-indazol-5-yl)pyridin-2-yl)urea] gave a melting point of 230 to 233 °C. The molecule further yielded a GI50 in the data set on HCT116 cancer cell line of 0.33 ± 0.042 µM. Moreover, the “cell growth inhibitory effect” value with normal cell line HEK293 is recorded as “excellent safety profiles; also recorded: low cytotoxicity”. The molecule also returned a GI50 in the data set on MCF7 cancer cell line [1] of 0.23 ± 0.015 µM.

With `CCc1c2c(nc3ccc(OC(=O)N4CCC(N5CCCCC5)CC4)cc13)-c1cc3c(c(=O)n1C2)COC(=O)[C@]3(O)CC` [Irinotecan, reference compound], the GI50 in the data set with HCT116 cancer cell line was 0.62 ± 0.003 µM; with MCF7 cancer cell line [1], 0.35 ± 0.069 µM.

Turning to `O=C(Nc1cccc(F)c1)Nc1cc(-c2ccc3cncnc3c2)ccn1` [Compound 4b, 1-(3-Fluorophenyl)-3-(4-(quinazolin-7-yl)pyridin-2-yl)urea], the GI50 in the data set on HCT116 cancer cell line and in the data set on MCF7 cancer cell line [1] was more than 10 µM throughout.

In turn, `O=C(NCCc1ccccc1)Nc1cc(-c2ccc3cncnc3c2)ccn1` [Compound 4l, 1-Phenethyl-3-(4-(quinazolin-7-yl)pyridin-2-yl)urea] returned a melting point of 260 to 263 °C. The molecule further had a GI50 with HCT116 cancer cell line of more than 10 µM. In the data set on MCF7 cancer cell line [1], this molecule showed a GI50 of 9 ± 0.347 µM.

`COc1ccc(NC(=O)Nc2cc(-c3ccc4[nH]nc(OC)c4c3)ccn2)cc1` [Compound 8e, 1-(4-(3-Methoxy-1H-indazol-5-yl)pyridin-2-yl)-3-(4-methoxyphenyl)urea] displayed a melting point of 240 to 242 °C. For the same molecule, the GI50 with HCT116 cancer cell line is more than 10 µM. Moreover, the GI50 in the data set on MCF7 cancer cell line [1] is 4.37 ± 0.359 µM.

`COc1cccc(NC(=O)Nc2cc(-c3ccc4[nH]nc(OC)c4c3)ccn2)c1` [Compound 8d, 1-(4-(3-Methoxy-1H-indazol-5-yl)pyridin-2-yl)-3-(3-methoxyphenyl)urea] gave a melting point of 230 to 233 °C. The molecule also gave a GI50 with HCT116 cancer cell line of more than 10 µM. Besides, the GI50 in the data set with MCF7 cancer cell line [1] is 1.89 ± 0.26 µM.

For the molecule `O=C(Nc1ccc(F)c(Cl)c1)Nc1cc(-c2ccc3cncnc3c2)ccn1` [Compound 4h, 1-(3-Chloro-4-fluorophenyl)-3-(4-(quinazolin-7-yl)pyridin-2-yl)urea], the melting point lay within 318 to 321 °C. Also, the GI50 in the data set on HCT116 cancer cell line is more than 10 µM. In the data set on MCF7 cancer cell line [1], this molecule had a GI50 of more than 10 µM.

With `O=C(Nc1cccc(C(F)(F)F)c1)Nc1cc(-c2ccc3cncnc3c2)ccn1` [Compound 4f, 1-(4-(Quinazolin-7-yl)pyridin-2-yl)-3-(3-(trifluoromethyl)phenyl)urea], the melting point is 328 to 331 °C. In addition, the GI50 with HCT116 cancer cell line was more than 10 µM. The GI50 in the data set with MCF7 cancer cell line [1] is more than 10 µM.

Take `O=C(NCCc1ccccc1F)Nc1cc(-c2ccc3cncnc3c2)ccn1` [Compound 4m, 1-(2-Fluorophenethyl)-3-(4-(quinazolin-7-yl)pyridin-2-yl)urea]: the melting point lay within 272 to 275 °C. In the data set on HCT116 cancer cell line, this molecule displayed a GI50 of more than 10 µM. For the same molecule, in the data set on MCF7 cancer cell line [1], the GI50 was more than 10 µM.

As for `COc1n[nH]c2ccc(-c3ccnc(NC(=O)NCCc4ccccc4F)c3)cc12` [Compound 8j, 1-(2-Fluorophenethyl)-3-(4-(3-methoxy-1H-indazol-5-yl)pyridin-2-yl)urea], the melting point was 208 to 211 °C. The same molecule yielded a 50% growth inhibitory concentration (GI50) in the data set on HCT116 cancer cell line of more than 10 µM. In the data set on MCF7 cancer cell line [1], this molecule showed a GI50 of 0.75 ± 0.142 µM.

The molecule `COc1n[nH]c2ccc(-c3ccnc(NC(=O)Nc4ccc(F)c(Cl)c4)c3)cc12` [Compound 8f, 1-(3-Chloro-4-fluorophenyl)-3-(4-(3-methoxy-1H-indazol-5-yl)pyridin-2-yl)urea] displayed a melting point of 300 to 305 °C. The same molecule registered a GI50 with HCT116 cancer cell line of 0.92 ± 0.114 µM. Also, in the data set on MCF7 cancer cell line [1], halving of growth (GI50) required 0.89 ± 0.209 µM.

Turning to `COc1n[nH]c2ccc(-c3ccnc(NC(=O)NC4CCCC4)c3)cc12` [Compound 8g, 1-Cyclopentyl-3-(4-(3-methoxy-1H-indazol-5-yl)pyridin-2-yl)urea], the melting point lay within 222 to 225 °C. Moreover, the GI50 in the data set on HCT116 cancer cell line stood at 1.25 ± 0.037 µM. Further, the GI50 in the data set on MCF7 cancer cell line [1] was found to be 1.17 ± 0.059 µM.

`COc1n[nH]c2ccc(-c3ccnc(NC(=O)NCCc4ccc(F)cc4)c3)cc12` [Compound 8k, 1-(4-Fluorophenethyl)-3-(4-(3-methoxy-1H-indazol-5-yl)pyridin-2-yl)urea] displayed a melting point of 209 to 212 °C. The GI50 in the data set on HCT116 cancer cell line stood at 1.38 ± 0.086 µM. Further, in the data set with MCF7 cancer cell line [1], the GI50 was 1.13 ± 0.003 µM.

Molecule `COc1n[nH]c2ccc(-c3ccnc(NC(=O)NCCc4ccccc4)c3)cc12` [Compound 8i, 1-(4-(3-Methoxy-1H-indazol-5-yl)pyridin-2-yl)-3-phenethylurea] displayed a melting point of 200 to 203 °C. In the data set with HCT116 cancer cell line, the GI50 was 1.08 ± 0.006 µM. Further, the “cell growth inhibitory effect” value in the data set on normal cell line HEK293 is given as “excellent safety profiles; also recorded: low cytotoxicity”. Moreover, in the data set with MCF7 cancer cell line [1], growth was halved (GI50) at 0.16 ± 0.013 µM.

Molecule `O=C(Nc1ccccc1)Nc1cc(-c2ccc3cncnc3c2)ccn1` [Compound 4a, 1-Phenyl-3-(4-(quinazolin-7-yl)pyridin-2-yl)urea] gave a melting point of 332 to 335 °C. Also, the GI50 in the data set on HCT116 cancer cell line is more than 10 µM. The molecule also had a GI50 in the data set with MCF7 cancer cell line [1] of more than 10 µM.

As to `COc1ccc(NC(=O)Nc2cc(-c3ccc4cncnc4c3)ccn2)cc1` [Compound 4e, 1-(4-Methoxyphenyl)-3-(4-(quinazolin-7-yl)pyridin-2-yl)urea], the GI50 in the data set with HCT116 cancer cell line and in the data set on MCF7 cancer cell line [1] was more than 10 µM throughout.

With `CNC(=O)c1cc(Oc2ccc(NC(=O)Nc3ccc(Cl)c(C(F)(F)F)c3)cc2)ccn1` [Sorafenib], the GI50 with MCF7 cancer cell line [2] is 11.2 µM.

As for `COc1cccc(NC(=O)Nc2cc(-c3ccc4cncnc4c3)ccn2)c1` [Compound 4d, 1-(3-Methoxyphenyl)-3-(4-(quinazolin-7-yl)pyridin-2-yl)urea], the GI50 in the data set on HCT116 cancer cell line and in the data set on MCF7 cancer cell line [1] was more than 10 µM throughout.

Consider `O=C(Nc1ccc(F)cc1)Nc1cc(-c2ccc3cncnc3c2)ccn1` [Compound 4c, 1-(4-Fluorophenyl)-3-(4-(quinazolin-7-yl)pyridin-2-yl)urea], for which the GI50 in the data set on HCT116 cancer cell line and in the data set on MCF7 cancer cell line [1] was more than 10 µM throughout.

For the molecule `O=C(NCc1ccccc1)Nc1cc(-c2ccc3cncnc3c2)ccn1` [Compound 4k, 1-Benzyl-3-(4-(quinazolin-7-yl)pyridin-2-yl)urea], the melting point lay within 221 to 224 °C. Besides, in the data set with HCT116 cancer cell line, the GI50 is more than 10 µM. In the data set with MCF7 cancer cell line [1], growth was halved (GI50) at 3.03 ± 0.061 µM.

The molecule `O=C(NCCc1ccc(F)cc1)Nc1cc(-c2ccc3cncnc3c2)ccn1` [Compound 4n, 1-(4-Fluorophenethyl)-3-(4-(quinazolin-7-yl)pyridin-2-yl)urea] registered a melting point of 214 to 217 °C. Further, in the data set on HCT116 cancer cell line, the GI50 was more than 10 µM. The GI50 in the data set with MCF7 cancer cell line [1] is more than 10 µM.

`COc1n[nH]c2ccc(-c3ccnc(NC(=O)Nc4cccc(F)c4)c3)cc12` [Compound 8b, 1-(3-Fluorophenyl)-3-(4-(3-methoxy-1H-indazol-5-yl)pyridin-2-yl)urea] had a melting point of 229 to 232 °C. The GI50 in the data set with HCT116 cancer cell line is more than 10 µM. The GI50 in the data set with MCF7 cancer cell line [1] is more than 10 µM.

Consider `O=C(Nc1cccc(OC(F)(F)F)c1)Nc1cc(-c2ccc3cncnc3c2)ccn1` [Compound 4g, 1-(4-(Quinazolin-7-yl)pyridin-2-yl)-3-(3-(trifluoromethoxy)phenyl)urea], for which the GI50 in the data set with HCT116 cancer cell line and with MCF7 cancer cell line [1] was more than 10 µM in each case.

`C=CCNC(=O)Nc1cc(-c2ccc3cncnc3c2)ccn1` [Compound 4i, 1-Allyl-3-(4-(quinazolin-7-yl)pyridin-2-yl)urea] gave a melting point of 190 to 193 °C. The GI50 in the data set on HCT116 cancer cell line was more than 10 µM. Also, in the data set with MCF7 cancer cell line [1], the GI50 worked out at 3.35 ± 0.101 µM.
